Laboratory results: paper PMC11829042, “Proteasomes accumulate in the plant apoplast where they participate in microbe-associated molecular pattern (MAMP)-triggered pathogen defense” (Nature Communications, 2025)

Legend:
[1] = molecular target: T1, 20S proteasome core particle, PBE1(β5) subunit (chymotrypsin-like activity) (Arabidopsis thaliana, UniProt O23717); test: Suc-LLVY-AMC cleavage in leaf lysate and APF, […]; format: cell-based
T1 construct: native proteasomes in leaf crude lysate and apoplastic fluid; with other subunits of the assembled 20S core particle
T1 sequence (O23717 58-274): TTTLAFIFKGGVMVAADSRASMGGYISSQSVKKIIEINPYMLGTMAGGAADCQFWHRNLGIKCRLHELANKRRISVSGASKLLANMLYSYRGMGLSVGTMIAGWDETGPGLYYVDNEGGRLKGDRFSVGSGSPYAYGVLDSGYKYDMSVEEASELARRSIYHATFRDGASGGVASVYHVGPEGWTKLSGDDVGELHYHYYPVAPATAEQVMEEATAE

[2] = molecular target: T2, 20S proteasome core particle, PBE1(β5) subunit (chymotrypsin-like activity) (Arabidopsis thaliana, UniProt O23717); test: Suc-LLVY-AMC fluorogenic peptidase assay with […] SylA, affinity-purified proteasomes; format: biochemical
T2 construct: with other subunits of the assembled 20S core particle (PAG1(α7)-FLAG)
T2 sequence (O23717 58-274): T1 sequence (O23717 58-274)
T2 sequence (O23715 2-249 partner): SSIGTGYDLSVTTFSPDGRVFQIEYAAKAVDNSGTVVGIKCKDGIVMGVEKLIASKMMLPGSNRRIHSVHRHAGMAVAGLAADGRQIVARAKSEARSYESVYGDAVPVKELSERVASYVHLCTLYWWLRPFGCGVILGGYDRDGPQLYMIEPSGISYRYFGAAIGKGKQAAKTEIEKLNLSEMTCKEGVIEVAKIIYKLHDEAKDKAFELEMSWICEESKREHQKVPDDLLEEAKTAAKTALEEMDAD

SMILES	Suc-LLVY-AMC cleavage in leaf lysate and APF, 50 μM [1]	Suc-LLVY-AMC fluorogenic peptidase assay with 50 or 150 μM SylA, affinity-purifi [2]
CC(C)C[C@H](NC(=O)[C@H](Cc1ccccc1)NC(=O)c1cnccn1)B(O)O [BTZ, 1R-3-methyl-1-2S-3-phenyl-2-pyrazin-2-carbonylamino propanoyl amino butyl boronic acid]	Suc-LLVY-AMC breakdown in the CL was strongly suppressed by the well-characterized CP inhibitors bortezomib (BTZ), MG132	–
CC(C)[C@H](NC(=O)N[C@H](C(=O)N[C@H]1/C=C/CCNC(=O)/C=C/[C@H](C(C)C)NC1=O)C(C)C)C(=O)O [SylA, syringolin-A]	–	not only effectively inhibit the proteolytic activity of affinity-purified Arabidopsis proteasomes and those in the CL
